Experiment [1] has as its target T1, Adenine phosphoribosyltransferase (Homo sapiens, UniProt P07741).
T1 sequence (P07741 whole entry): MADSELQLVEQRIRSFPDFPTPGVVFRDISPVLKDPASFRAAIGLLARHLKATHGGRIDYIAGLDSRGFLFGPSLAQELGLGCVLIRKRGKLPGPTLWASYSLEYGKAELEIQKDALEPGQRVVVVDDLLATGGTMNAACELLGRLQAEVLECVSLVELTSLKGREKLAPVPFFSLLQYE

Experiment [2] concerns the target Serine/threonine-protein kinase N1 (Homo sapiens, UniProt Q16512).
In experiment [3] the target is cAMP-dependent protein kinase catalytic subunit alpha (Homo sapiens, UniProt P17612).
In experiment [4] the target is DNA topoisomerase 2-beta (Homo sapiens, UniProt Q02880).
Chain of DNA topoisomerase 2-beta (Q02880 whole entry): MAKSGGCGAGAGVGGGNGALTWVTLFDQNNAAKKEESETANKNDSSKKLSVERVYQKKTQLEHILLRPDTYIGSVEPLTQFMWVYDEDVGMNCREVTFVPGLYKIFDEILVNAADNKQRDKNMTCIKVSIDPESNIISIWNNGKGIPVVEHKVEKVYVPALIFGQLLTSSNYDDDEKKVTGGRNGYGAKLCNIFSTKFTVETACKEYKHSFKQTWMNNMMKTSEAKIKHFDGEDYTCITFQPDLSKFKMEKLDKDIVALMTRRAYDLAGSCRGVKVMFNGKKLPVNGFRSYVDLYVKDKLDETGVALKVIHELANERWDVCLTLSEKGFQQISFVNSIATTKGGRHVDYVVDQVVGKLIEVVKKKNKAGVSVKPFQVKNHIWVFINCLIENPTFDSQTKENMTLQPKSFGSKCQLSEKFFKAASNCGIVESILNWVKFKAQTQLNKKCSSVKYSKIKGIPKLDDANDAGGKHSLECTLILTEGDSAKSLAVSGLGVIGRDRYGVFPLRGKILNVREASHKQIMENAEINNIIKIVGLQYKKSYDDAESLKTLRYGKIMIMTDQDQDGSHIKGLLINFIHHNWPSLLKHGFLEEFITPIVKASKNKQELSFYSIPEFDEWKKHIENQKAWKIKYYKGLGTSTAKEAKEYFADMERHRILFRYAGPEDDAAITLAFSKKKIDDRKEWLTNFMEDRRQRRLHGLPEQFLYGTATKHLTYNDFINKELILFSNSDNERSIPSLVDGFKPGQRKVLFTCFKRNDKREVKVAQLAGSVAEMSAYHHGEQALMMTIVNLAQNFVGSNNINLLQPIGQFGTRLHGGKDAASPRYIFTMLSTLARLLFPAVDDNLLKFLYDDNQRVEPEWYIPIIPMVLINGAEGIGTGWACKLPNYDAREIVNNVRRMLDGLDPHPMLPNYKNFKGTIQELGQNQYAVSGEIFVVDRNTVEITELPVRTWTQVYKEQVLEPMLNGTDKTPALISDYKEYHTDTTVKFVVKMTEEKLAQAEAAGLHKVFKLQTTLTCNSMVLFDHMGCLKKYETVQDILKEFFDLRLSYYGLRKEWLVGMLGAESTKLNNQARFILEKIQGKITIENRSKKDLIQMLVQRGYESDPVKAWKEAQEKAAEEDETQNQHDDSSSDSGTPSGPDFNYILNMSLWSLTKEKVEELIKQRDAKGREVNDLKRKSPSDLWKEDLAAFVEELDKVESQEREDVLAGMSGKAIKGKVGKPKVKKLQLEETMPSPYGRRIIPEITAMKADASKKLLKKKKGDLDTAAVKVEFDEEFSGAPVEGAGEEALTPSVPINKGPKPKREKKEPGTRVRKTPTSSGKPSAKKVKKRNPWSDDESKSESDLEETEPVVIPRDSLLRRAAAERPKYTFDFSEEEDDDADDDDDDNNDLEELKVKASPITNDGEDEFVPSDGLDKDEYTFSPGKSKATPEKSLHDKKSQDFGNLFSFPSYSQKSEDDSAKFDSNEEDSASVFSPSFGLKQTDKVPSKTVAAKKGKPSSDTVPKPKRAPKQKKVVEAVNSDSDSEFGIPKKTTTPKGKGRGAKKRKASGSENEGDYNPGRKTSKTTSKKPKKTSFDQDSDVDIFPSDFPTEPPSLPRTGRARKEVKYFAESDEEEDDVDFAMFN
The target in experiment [5] is Protein-tyrosine kinase 6 (Homo sapiens, UniProt Q13882).
Chain of Protein-tyrosine kinase 6 (Q13882 whole entry): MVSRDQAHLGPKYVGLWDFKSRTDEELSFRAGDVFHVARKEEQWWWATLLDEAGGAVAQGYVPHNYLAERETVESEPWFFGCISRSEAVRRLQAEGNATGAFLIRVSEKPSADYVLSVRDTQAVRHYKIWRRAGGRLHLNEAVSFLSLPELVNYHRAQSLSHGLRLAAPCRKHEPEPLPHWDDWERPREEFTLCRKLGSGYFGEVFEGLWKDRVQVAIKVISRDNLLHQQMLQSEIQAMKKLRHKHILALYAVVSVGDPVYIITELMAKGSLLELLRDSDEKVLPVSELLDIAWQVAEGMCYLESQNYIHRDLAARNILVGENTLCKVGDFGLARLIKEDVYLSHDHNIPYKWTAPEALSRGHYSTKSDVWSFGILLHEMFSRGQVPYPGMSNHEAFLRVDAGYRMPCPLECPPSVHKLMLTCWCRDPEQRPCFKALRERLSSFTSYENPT
The target in experiment [6] is Cyclin-dependent kinase 7 (Homo sapiens, UniProt P50613).
Chain of Cyclin-dependent kinase 7 (P50613 whole entry): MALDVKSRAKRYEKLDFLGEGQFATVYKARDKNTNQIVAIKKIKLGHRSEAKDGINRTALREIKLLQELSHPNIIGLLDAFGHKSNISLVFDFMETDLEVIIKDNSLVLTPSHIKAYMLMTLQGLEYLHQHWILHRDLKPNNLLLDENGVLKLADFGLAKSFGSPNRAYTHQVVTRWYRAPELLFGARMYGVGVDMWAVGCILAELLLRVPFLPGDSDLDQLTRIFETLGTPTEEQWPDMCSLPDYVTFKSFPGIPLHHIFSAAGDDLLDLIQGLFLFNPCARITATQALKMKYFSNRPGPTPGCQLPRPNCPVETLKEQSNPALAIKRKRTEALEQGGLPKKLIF
The target of experiment [7] is Serine/threonine-protein kinase/endoribonuclease IRE2 (Homo sapiens, UniProt Q76MJ5).
Chain of Serine/threonine-protein kinase/endoribonuclease IRE2 (Q76MJ5 whole entry): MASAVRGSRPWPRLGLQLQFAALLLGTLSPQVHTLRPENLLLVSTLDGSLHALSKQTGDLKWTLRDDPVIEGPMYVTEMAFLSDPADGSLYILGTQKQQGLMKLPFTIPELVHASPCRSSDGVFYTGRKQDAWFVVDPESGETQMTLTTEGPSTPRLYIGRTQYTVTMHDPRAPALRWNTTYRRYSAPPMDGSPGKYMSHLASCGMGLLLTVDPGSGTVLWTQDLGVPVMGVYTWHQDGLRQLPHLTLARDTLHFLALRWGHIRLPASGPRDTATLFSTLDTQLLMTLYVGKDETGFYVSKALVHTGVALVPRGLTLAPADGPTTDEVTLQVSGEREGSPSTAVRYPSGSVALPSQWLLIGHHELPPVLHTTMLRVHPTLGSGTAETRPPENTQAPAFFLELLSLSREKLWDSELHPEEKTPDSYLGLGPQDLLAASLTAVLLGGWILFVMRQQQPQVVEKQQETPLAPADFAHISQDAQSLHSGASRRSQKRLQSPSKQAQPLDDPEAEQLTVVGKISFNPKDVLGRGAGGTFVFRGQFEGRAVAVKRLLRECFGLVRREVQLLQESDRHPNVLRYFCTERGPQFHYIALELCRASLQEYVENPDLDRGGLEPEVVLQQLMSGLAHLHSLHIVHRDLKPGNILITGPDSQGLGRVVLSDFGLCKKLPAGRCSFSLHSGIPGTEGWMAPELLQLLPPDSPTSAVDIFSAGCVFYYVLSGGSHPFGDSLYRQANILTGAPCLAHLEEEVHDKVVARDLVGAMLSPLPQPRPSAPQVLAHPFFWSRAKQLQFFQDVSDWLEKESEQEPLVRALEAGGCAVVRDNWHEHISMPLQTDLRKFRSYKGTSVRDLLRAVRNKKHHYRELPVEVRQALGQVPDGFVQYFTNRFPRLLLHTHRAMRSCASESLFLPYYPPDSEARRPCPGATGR
Experiment [8] has as its target Ephrin type-A receptor 5 (Homo sapiens, UniProt P54756).
The target of experiment [9] is 5'-AMP-activated protein kinase catalytic subunit alpha-1 (Homo sapiens, UniProt Q13131).
Chain of 5'-AMP-activated protein kinase catalytic subunit alpha-1 (Q13131 whole entry): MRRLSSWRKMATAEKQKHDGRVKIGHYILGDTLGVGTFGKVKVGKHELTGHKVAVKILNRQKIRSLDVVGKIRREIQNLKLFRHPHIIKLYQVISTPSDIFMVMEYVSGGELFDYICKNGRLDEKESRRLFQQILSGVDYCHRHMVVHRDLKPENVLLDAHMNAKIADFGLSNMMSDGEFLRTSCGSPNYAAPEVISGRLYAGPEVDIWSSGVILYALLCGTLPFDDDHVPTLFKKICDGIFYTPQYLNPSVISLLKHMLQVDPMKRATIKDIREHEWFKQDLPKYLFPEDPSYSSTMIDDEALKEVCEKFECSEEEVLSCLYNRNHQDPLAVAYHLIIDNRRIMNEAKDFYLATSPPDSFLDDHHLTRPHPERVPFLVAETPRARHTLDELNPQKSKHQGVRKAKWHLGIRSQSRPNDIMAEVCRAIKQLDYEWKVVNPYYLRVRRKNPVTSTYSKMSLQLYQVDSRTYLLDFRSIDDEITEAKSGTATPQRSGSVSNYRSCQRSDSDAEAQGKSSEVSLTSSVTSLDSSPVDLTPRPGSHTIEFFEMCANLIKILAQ
The target in experiment [10] is T2, Serine/threonine-protein kinase LATS1 (Homo sapiens, UniProt O95835).
T2 sequence (O95835 whole entry): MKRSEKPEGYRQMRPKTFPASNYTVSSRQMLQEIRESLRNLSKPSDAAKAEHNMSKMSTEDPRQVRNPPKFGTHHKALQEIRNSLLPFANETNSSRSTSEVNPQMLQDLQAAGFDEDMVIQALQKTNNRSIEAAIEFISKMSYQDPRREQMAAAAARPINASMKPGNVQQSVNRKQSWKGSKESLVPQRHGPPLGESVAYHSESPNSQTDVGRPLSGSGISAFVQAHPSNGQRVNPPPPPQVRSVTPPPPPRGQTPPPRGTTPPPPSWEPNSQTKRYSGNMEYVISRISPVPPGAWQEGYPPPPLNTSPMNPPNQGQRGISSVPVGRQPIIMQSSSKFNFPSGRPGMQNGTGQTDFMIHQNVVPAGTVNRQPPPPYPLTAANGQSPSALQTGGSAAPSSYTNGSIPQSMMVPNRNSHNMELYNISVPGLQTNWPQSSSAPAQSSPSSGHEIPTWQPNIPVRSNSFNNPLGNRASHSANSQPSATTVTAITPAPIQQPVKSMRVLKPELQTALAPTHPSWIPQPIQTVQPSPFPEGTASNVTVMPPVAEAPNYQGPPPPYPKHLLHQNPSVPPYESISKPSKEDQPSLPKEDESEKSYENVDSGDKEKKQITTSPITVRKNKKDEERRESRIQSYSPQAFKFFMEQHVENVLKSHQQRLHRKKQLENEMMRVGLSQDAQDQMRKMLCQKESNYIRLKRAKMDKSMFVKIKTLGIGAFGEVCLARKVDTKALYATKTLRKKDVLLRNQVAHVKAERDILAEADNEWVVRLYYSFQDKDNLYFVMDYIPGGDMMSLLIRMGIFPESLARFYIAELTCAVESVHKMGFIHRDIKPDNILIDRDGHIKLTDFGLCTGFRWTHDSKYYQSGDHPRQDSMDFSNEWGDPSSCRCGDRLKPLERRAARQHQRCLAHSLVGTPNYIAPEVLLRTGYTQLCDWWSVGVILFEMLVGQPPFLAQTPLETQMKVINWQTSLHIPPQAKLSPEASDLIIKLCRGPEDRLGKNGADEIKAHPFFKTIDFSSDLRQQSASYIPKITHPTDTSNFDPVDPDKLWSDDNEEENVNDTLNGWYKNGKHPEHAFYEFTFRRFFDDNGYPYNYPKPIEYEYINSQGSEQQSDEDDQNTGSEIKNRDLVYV

Experiment [11] deals with T3, Serine/threonine-protein kinase TBK1 (Homo sapiens, UniProt Q9UHD2).
T3 sequence (Q9UHD2 whole entry): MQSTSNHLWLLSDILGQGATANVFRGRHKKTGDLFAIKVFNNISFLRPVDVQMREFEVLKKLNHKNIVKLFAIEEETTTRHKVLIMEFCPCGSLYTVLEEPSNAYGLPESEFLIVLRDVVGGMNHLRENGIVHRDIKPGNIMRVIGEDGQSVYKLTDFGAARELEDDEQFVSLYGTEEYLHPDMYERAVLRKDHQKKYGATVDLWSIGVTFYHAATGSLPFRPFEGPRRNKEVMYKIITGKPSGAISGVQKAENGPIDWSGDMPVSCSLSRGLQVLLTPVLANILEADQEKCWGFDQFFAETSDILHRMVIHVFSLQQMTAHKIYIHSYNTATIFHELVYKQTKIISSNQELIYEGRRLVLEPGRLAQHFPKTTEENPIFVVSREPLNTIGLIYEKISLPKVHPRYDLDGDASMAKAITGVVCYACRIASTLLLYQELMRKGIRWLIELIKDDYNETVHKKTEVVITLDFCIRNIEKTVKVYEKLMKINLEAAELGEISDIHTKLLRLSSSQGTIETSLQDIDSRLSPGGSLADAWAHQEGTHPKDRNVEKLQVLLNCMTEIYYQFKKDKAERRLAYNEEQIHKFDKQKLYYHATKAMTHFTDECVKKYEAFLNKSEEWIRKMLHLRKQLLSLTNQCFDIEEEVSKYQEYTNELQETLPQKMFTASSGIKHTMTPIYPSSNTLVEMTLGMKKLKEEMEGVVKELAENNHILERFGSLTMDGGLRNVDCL

The structures appear in SMILES notation. Calls of active or inactive are those of the source. Rule as the data show it, for most assays here: actives have a measured Kd and inactives only a lower limit.
Also: in the data inactive means no Kd found up to 30 µM.

Chain of Ephrin type-A receptor 5 (P54756 whole entry): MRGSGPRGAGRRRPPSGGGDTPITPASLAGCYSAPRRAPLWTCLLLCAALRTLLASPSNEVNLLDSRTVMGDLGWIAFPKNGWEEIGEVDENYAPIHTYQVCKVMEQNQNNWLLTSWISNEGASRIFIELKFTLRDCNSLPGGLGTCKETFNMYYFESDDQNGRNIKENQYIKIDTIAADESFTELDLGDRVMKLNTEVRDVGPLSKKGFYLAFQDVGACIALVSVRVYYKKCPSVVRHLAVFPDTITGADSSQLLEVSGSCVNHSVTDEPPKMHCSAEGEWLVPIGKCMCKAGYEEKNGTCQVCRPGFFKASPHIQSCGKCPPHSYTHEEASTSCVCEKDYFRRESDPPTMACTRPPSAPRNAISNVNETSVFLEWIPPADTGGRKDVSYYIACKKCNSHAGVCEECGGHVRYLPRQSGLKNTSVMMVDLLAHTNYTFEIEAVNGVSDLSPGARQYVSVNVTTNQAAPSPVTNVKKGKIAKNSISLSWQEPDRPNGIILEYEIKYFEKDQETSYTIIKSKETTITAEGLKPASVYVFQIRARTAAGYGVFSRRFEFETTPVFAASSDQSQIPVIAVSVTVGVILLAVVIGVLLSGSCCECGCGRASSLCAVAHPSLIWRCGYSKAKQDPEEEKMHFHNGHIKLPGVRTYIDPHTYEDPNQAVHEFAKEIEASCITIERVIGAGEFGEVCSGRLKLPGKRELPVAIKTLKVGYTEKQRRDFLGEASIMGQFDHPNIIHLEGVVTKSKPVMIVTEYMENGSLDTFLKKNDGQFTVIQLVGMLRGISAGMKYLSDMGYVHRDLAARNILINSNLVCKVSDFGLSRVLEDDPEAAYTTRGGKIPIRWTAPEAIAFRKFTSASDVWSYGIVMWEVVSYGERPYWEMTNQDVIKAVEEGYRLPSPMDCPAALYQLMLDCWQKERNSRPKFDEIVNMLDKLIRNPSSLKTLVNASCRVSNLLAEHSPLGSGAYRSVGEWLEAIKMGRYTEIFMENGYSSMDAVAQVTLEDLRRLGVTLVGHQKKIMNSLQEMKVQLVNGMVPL

Regarding `C=CC(=O)Nc1cc(Nc2nccc(-c3cn(C)c4ccccc34)n2)c(OC)cc1N(C)CCN(C)C` [OSIMERTINIB], the Kd in [1], in [2], in experiment [3], in experiment [4], in experiment [5] and in experiment [6] was > 30 µM (inactive) throughout. The Kd in experiment [7], in [8], in experiment [9], in [10] and in experiment [11] was > 30 µM (inactive) in each case.
Regarding `Cn1cc(-c2[nH]c3cc(NC(=O)[C@H](N)C4CCCCC4)cc4c3c2C=NNC4=O)cn1`, the Kd is > 30 µM (inactive) in experiment [1]; 0.119 µM (active) in [2]; > 30 µM (inactive) in experiment [3]; > 30 µM (inactive) in experiment [4]; > 30 µM (inactive) in experiment [5]; > 30 µM (inactive) in experiment [6]. The Kd is > 30 µM (inactive) in [7]; > 30 µM (inactive) in experiment [8]; 1.32 µM (active) in experiment [9]; 0.363 µM (active) in [10]; > 30 µM (inactive) in experiment [11].
Take `COCCN1CCN(Cc2ccc(-c3n[nH]c4c3C(=O)c3c(NC(=O)NN5CCOCC5)cccc3-4)cc2)CC1` [RGB-286638]: the Kd in experiment [1] was > 30 µM (inactive); in experiment [2] it was > 30 µM (inactive); in experiment [3], > 30 µM (inactive); in [4], > 30 µM (inactive); in experiment [5] it was > 30 µM (inactive); in experiment [6] it was 0.154 µM (active). Further, the Kd in [7] is > 30 µM (inactive); in experiment [8], > 30 µM (inactive); in experiment [9], > 30 µM (inactive); in experiment [10], > 30 µM (inactive); in experiment [11], 2.01 µM (active).
`C[C@@H]1COC(Nc2ccc3ncnc(Nc4ccc(OCc5nccs5)c(Cl)c4)c3c2)=N1` [VARLITINIB]: the Kd in [1], in experiment [2], in [3], in [4], in [5] and in experiment [6] was > 30 µM (inactive) in each case. Besides, the Kd in [7], in [8], in experiment [9], in experiment [10] and in experiment [11] was > 30 µM (inactive) each time.
Take `O=C(NC[C@H](O)CO)c1ccncc1Nc1ccc(I)cc1F` [PIMASERTIB]: the Kd in [1], in experiment [2], in experiment [3], in experiment [4], in [5] and in experiment [6] was > 30 µM (inactive) each time. The Kd in experiment [7], in [8], in experiment [9], in experiment [10] and in experiment [11] was > 30 µM (inactive) in each case.
With `CCc1cc2c(cc1N1CCC(N3CCOCC3)CC1)C(C)(C)c1[nH]c3cc(C#N)ccc3c1C2=O` [ALECTINIB], the Kd in [1], in experiment [2], in experiment [3], in experiment [4], in experiment [5] and in experiment [6] was > 30 µM (inactive) each time. Further, the Kd in experiment [7], in experiment [8], in [9], in [10] and in [11] was > 30 µM (inactive) in each case.
`Cc1c(NC(=O)OC[C@@H]2COCCN2)cn2ncnc(Nc3ccc4c(cnn4Cc4cccc(F)c4)c3)c12` [AC-480]: the Kd in [1], in [2], in experiment [3], in experiment [4], in experiment [5] and in experiment [6] was > 30 µM (inactive) throughout. Besides, the Kd in [7], in experiment [8], in experiment [9], in experiment [10] and in experiment [11] was > 30 µM (inactive) throughout.

In general, Kd refers to the constant that tells how readily two partners part at equilibrium.

Values taken from ChEMBL document CHEMBL3991601, “The target landscape of clinical kinase drugs” (Science, 2017).
